Molecules are shown by their SMILES. Non-standard residues stand in square brackets, D forms with d. Residues, ends and D or L forms follow the SMILES beside them. *: point of attachment. Acetyl(2-naphthyl) = O=C(Cc1ccc2ccccc2c1)*; pY = N[C@@H](Cc1ccc(OP(=O)(O)O)cc1)C(=O)O; NBD = O=[N+]([O-])c1ccc(*)c2nonc12

Here are results for one compound from patent US12264352B2, “Method for enhancing extracellular vesicle production” (Research Foundation of the City University of New York, priority 2016, dated 2025).

For series [1], the system named is MB231, HT1080, MB231-4175. As to the kind of experiment: Cell tests (toxicity/viability) for various cell types at 0-200 μM peptide after 60 min of incubation. It is filed as cell-based. The following applies: in general, toxicity depends on cell type; 60 min incubation; FIG. 5A. On the procedure:
As shown in FIG. 5A toxicity depends on the cell type, however in general cells are viable under 100 μM of peptide incubation (NapFFK(NBD)Yp). […] Thus, EV generation can be amplified as low as 5 μM of peptide incubation and shorter times to be effective.

In series [2] the test system is MDA-MB231 breast cancer cells. Put plainly: Cell death of the cells used for EV production at high peptide concentration. It is filed as cell-based. The following applies: the particular cells used for EV production. From the text:
The NTA can also determine the average diameter of released EVs. While the increase of polymer concentration in parental cells increases the number of released EVs, the size of EVs is constant regardless of the polypeptide concentration in parental cells (FIG. 3B, FIG. 3C, FIG. 3D, FIG. 3E). The increased number of released EVs can also be confirmed by the increase of fluorescence intensity of collected EVs (FIG. 3F), measured by fluorescence spectrometer. […] In one embodiment, production is enhanced by at least 50% relative to the control. […] The particular cells used experienced cell death at concentrations above 500 μM of NapFFKYp-NBD. Alternative upper limits may be possible for other cell line and other polypeptide precursors.

Take `O=C(Cc1ccc2ccccc2c1)N[C@@H](Cc1ccccc1)C(=O)N[C@@H](Cc1ccccc1)C(=O)N[C@@H](CCCCNc1ccc([N+](=O)[O-])c2nonc12)C(=O)N[C@@H](Cc1ccc(OP(=O)(O)O)cc1)C(=O)O` [NapFFK(NBD)Yp] ({Acetyl(2-naphthyl)}-FFK(NBD)[pY]-OH): the “peptide concentration under which cells are viable” value in series [1] is recorded as “under 100 μM”. Besides, the “concentration above which cells experienced cell death” value in series [2] was “above 500 μM”.
